{"source": "patent US9572788B2", "about": "“Cell permeable inhibitors of anaphase promoting complex” (President and Fellows of Harvard College, priority 2014, dated 2017)", "type_in_all_cases": "cell-based, human", "key": {"HeLa H2B-GFP cells [1]": {"tested_on": "HeLa H2B-GFP cells", "test": "Live cell imaging of mitotic duration and cell fate", "method": "Detailed siRNA transfection and drug treatment schemes are described in supplemental experimental procedures. HeLa H2B-GFP cells were plated in DMEM with 10% FBS at 20% confluence. […] Live cell imaging was performed at 12 minute intervals on a Nikon TE2000E PFS inverted microscope fitted with an incubation chamber maintained at 37° C. and supplied with 5% CO2. Cell division was tracked by manual inspection of movies, and mitotic duration was measured as the time between the first frame of chromosome condensation and the frame of chromosome segregation (anaphase), decondensation (mitotic exit without anaphase) or cell death (chromosomes shrinking to a small bright dot).\nThe imaging plate was mounted onto a motorized stage (Prior ProScan II) on a Nikon TE2000E PFS inverted microscope fitted with an incubation chamber maintained at 37° C. and supplied with 5% CO2. A 20× Plan Apo 0.75 NA or 40× Plan Fluor 0.75 NA objective lens was used as indicated and images were collected with 2×2 binning. […] TIFF files of each image were exported from Elements and used to build stacks and Quicktime movies with Metamorph imaging software (Molecular Devices). For manual analysis, mitotic duration is counted as the time between the first frame of chromosome condensation and the frame of chromosome segregation (anaphase) or decondensation (mitotic exit in the presence of nocodazole) or cell death (chromosomes shrinking to a small bright dot).\nHeLa H2B-GFP cells were plated in a 24-well plate in DMEM 10% FBS at 20% confluence one day prior to experiment and synchronized by double thymidine block as described above. […] Live cell imaging was set up as described above.\nHeLa H2B-GFP cells were plated in a 24-well plate in DMEM+10% FBS at 20% confluence one day prior to the experiment and synchronized by double thymidine block as described above. The cells were released from the first thymidine block into 200 μl OptiMem without FBS. Transfection was performed immediately after the first thymidine release. […] The two mixtures were left at room temperature for 5 min before being mixed together and incubated for additional 20 min and then added to the cells to a final volume of 250 μl. 4 h after transfection, 250 μl of DMEM+20% FBS were added to cells.\nHeLa H2B-GFP cells were plated in glass-bottom 24-well plates at 20% confluence one day prior to the experiment and synchronized by double thymidine block as described above. […] Cells were treated with 100 nM Hesperadin or DMSO 8 h after release from the second thymidine block and live cell imaging was set up as described above.\nHeLa H2B-GFP cells were plated in a 24-well plate in DMEM+10% FBS at 20% confluence one day prior to experiment and synchronized by double thymidine block as synchronized above. […] Live cell imaging was set up as described above.\nHeLa H2B-GFP cells were plated in a 24-well plate in DMEM+10% FBS at 20% confluence one day prior to experiment and synchronized by double thymidine block as described above. […] Untreated cells were used as the control. Live cell imaging was set up as described above. […] Alternatively, at 10 h after release from the second block, 10 μM MG132 with or without 25 μg/ml cycloheximide was added to the cells. […] Live cell imaging was set up as described above.\nHeLa H2B-GFP cells were plated in a 24-well plate in DMEM+10% FBS at 20% confluence one day prior to experiment and synchronized by double thymidine block as described above. Mad2 siRNA transfection was performed as described above. At 10 h after release from the second block, 10 μM MG132 with or without 25 μg/ml cycloheximide was added to the cells. Live cell imaging was set up as described above. Manual analysis was focused only on cells that entered mitosis after MG132 addition.\nLive cell imaging experiments. […] Nocodazole, taxol, proTAME, cyclinal and hesperadin were added to cells at 8 h after release. MG132 was added to cells at 10 h after release to allow mitotic entry."}, "HeLa H2B-GFP cells [2]": {"tested_on": "HeLa H2B-GFP cells", "test": "Chromosome congression analysis", "method": "HeLa H2B-GFP cells were plated in 35 mm glass-bottom dishes (MatTek) in DMEM+10% FBS at 20% confluence one day prior to the experiment and synchronized by double thymidine block as described above. Drugs were added as follows to a final volume of 3 ml from 2× concentrated preparation in culture medium. DMSO (0.06%), proTAME (3 and 12 μM) or 10 nM Nocodazole were added 8 h after release from the second block, while MG132 (10 μM) was added at 10 h. H2B-GFP was imaged for 4 hrs every 3 min at 40× magnification as described above."}, "HeLa cells": {"tested_on": "HeLa cells", "test": "Immunofluorescence of mitotic spindle and interkinetochore distance", "settings": "asynchronous HeLa, 2 h; 12 μM proTAME; nocodazole or taxol", "method": "HeLa cells grown in DMEM+10% FBS were plated on 25 mm glass coverslips in a E-well dish at a density of 130,000/ml×3 ml 48 h prior to treatment. They were then treated with 0.06% DMSO, 12 μM proTAME, 300 nM nocodazole or 300 nM taxol for 2 h. The cells were washed twice with PBS and fixed with 3% paraformaldehyde for 15 min. The cells were then washed with PBS and permeabilized with PBS plus 0.5% Triton X-100 for 2 min. The cells were then washed with PBS and blocked with PBS plus 5% FBS for 1 h. CREST antisera diluted 1:50 into PBS was added to the cells and incubated at room temperature for 1 h. The cells were washed with PBS and incubated with 1:1000 anti-human-Alexa 568 (Invitrogen, A21090) and 1:100 anti-α-tubulin-FITC for 1 h. The cells were then washed with PBS and the nuclei were stained with 1 μg/ml Hoechst 33342. The cover slips were mounted in 0.1M N-propylgallate in 9:1 glycerol:PBS. Z-series images were taken on a Nikon TE2000 microscope with PerkinElmer spinning disk confocal device. Maximal Z-projection images of individual cells were made by Image J. To measure interkinetochore distances, a straight line was drawn across a kinetochore pair in the same confocal plane and pixel intensities along the line were plotted so that each kinetochore would be represented by a peak on the line. The interkinetochore distance was calculated as the distance between the peaks. Fifty-five kinetochore pairs from 5 cells treated with DMSO or proTAME were measured and the p-value was calculated with a paired student test."}, "[3]": {"settings": "Fig 6C, compounds 8 h after release, 12 μM proTAME, 300 nM nocodazole, 150 nM taxol, 100 nM hesperadin"}, "[4]": {"settings": "Fig 6D, Cdc27 siRNA, 100 nM hesperadin"}, "[5]": {"settings": "Fig 6D, UbcH10 siRNA, 100 nM hesperadin"}, "[6]": {"settings": "Fig 6D, control siRNA, 100 nM hesperadin"}, "[7]": {"settings": "Fig 7A, control siRNA, 3 μM MG132"}, "[8]": {"settings": "Fig 7B, MG132 3 μM, 100 nM hesperadin, 12 μM proTAME"}, "[9]": {"settings": "Fig 7D, MG132 10 μM, 100 nM hesperadin, 12 μM proTAME"}, "[10]": {"settings": "Fig 8B, MAD2 siRNA, MG132 10 μM ± 25 μg/ml cycloheximide"}, "[11]": {"settings": "Fig 8B, control siRNA, MG132 10 μM ± 25 μg/ml cycloheximide"}, "[12]": {"settings": "Fig S4C, proTAME 12 μM, MG132 10 μM, nocodazole 10 nM"}, "[13]": {"settings": "Fig 8A, 12 μM proTAME, 300 nM nocodazole or 150 nM taxol, ± 25 μg/ml cycloheximide 4 h later"}}, "note": "Peptide text beside a SMILES is read from it. * marks the point of attachment. Cbz = O=C(OCc1ccccc1)*", "data": [{"smiles": "CCS(=O)(=O)Nc1ccc2c(c1)/C(=C(/Nc1ccc(CN3CCCCC3)cc1)c1ccccc1)C(=O)N2", "note": "[Hesperadin, reference compound]", "values": [{"measurement": "Average mitotic duration", "setting": "HeLa H2B-GFP cells [1]; [3]", "result": 98.7, "unit": "min"}, {"measurement": "Median mitotic duration", "setting": "HeLa H2B-GFP cells [1]; [3]", "result": 96, "unit": "min"}, {"measurement": "Average mitotic duration", "setting": "HeLa H2B-GFP cells [1]; [4]", "result": 131.8, "unit": "min"}, {"measurement": "Median mitotic duration", "setting": "HeLa H2B-GFP cells [1]; [4]", "result": 132, "unit": "min"}, {"measurement": "Average mitotic duration", "setting": "HeLa H2B-GFP cells [1]; [5]", "result": 115.8, "unit": "min"}, {"measurement": "Median mitotic duration", "setting": "HeLa H2B-GFP cells [1]; [5]", "result": 108, "unit": "min"}, {"measurement": "Average mitotic duration", "setting": "HeLa H2B-GFP cells [1]; [6]", "result": 115.6, "unit": "min"}, {"measurement": "Median mitotic duration", "setting": "HeLa H2B-GFP cells [1]; [6]", "result": 120, "unit": "min"}, {"measurement": "Mitotic duration in the presence of taxol", "setting": "HeLa H2B-GFP cells [1]; co-treated with taxol", "result": "~2", "unit": "h"}]}, {"smiles": "CC(C)C[C@@H](C=O)NC(=O)[C@H](CC(C)C)NC(=O)[C@H](CC(C)C)NC(=O)OCc1ccccc1", "note": "[MG132, reference compound] (Cbz-Leu-Leu-Leu-aldehyde)", "values": [{"measurement": "Median duration of mitotic arrest", "setting": "HeLa H2B-GFP cells [1]; 3 μM", "result": 15, "unit": "h"}, {"measurement": "Cells that exited mitosis", "setting": "HeLa H2B-GFP cells [1]; 3 μM, 30 h experiment", "result": 10, "unit": "%"}, {"measurement": "Cells that exited mitosis", "setting": "HeLa H2B-GFP cells [1]; 3 μM, cells depleted of Mad2 by RNAi", "result": 50, "unit": "%"}, {"measurement": "Response of arrested cells to roscovitine", "setting": "HeLa H2B-GFP cells [1]; 100 μM roscovitine at 12 h after release", "result": "showed complete resistance to roscovitine"}, {"measurement": "Average mitotic duration", "setting": "HeLa H2B-GFP cells [1]; Fig 7A, MAD2 siRNA, 3 μM MG132", "result": 605.3, "unit": "min"}, {"measurement": "Median mitotic duration", "setting": "HeLa H2B-GFP cells [1]; Fig 7A, MAD2 siRNA, 3 μM MG132", "result": 667.5, "unit": "min"}, {"measurement": "Average mitotic duration", "setting": "HeLa H2B-GFP cells [1]; [7]", "result": 830.1, "unit": "min"}, {"measurement": "Median mitotic duration", "setting": "HeLa H2B-GFP cells [1]; [7]", "result": 840, "unit": "min"}, {"measurement": "Average mitotic duration", "setting": "HeLa H2B-GFP cells [1]; [8]", "result": 1549.9, "unit": "min"}, {"measurement": "Median mitotic duration", "setting": "HeLa H2B-GFP cells [1]; [8]", "result": 1440, "unit": "min"}, {"measurement": "Average mitotic duration", "setting": "HeLa H2B-GFP cells [1]; [9]", "result": 2169.8, "unit": "min"}, {"measurement": "Median mitotic duration", "setting": "HeLa H2B-GFP cells [1]; [9]", "result": 2172, "unit": "min"}, {"measurement": "Average mitotic duration", "setting": "HeLa H2B-GFP cells [1]; [10]", "result": 1755.2, "unit": "min"}, {"measurement": "Median mitotic duration", "setting": "HeLa H2B-GFP cells [1]; [10]", "result": 1716, "unit": "min"}, {"measurement": "Average mitotic duration", "setting": "HeLa H2B-GFP cells [1]; [11]", "result": 1715.1, "unit": "min"}, {"measurement": "Median mitotic duration", "setting": "HeLa H2B-GFP cells [1]; [11]", "result": 1614, "unit": "min"}, {"measurement": "Time normal-appearing metaphase plate maintained", "setting": "HeLa H2B-GFP cells [1]; MG132 alone", "result": "over 5 h"}, {"measurement": "Median mitotic delay/arrest", "setting": "HeLa H2B-GFP cells [1]; synchronized, drugs 10 hrs after release, proTAME 3 μM, low-dose MG132", "result": 276, "unit": "min"}, {"measurement": "Delay in chromosome congression", "setting": "HeLa H2B-GFP cells [2]; 3 μM proTAME or 10 μM MG132", "result": "caused no delay in chromosome congression"}, {"measurement": "Average chromosome congression time", "setting": "HeLa H2B-GFP cells [2]; [12]", "result": 21.6, "unit": "min"}, {"measurement": "Median chromosome congression time", "setting": "HeLa H2B-GFP cells [2]; [12]", "result": 21, "unit": "min"}]}, {"smiles": "CC(=O)O[C@H]1C(=O)[C@@]2(C)[C@H]([C@H](OC(=O)c3ccccc3)[C@]3(O)C[C@H](OC(=O)[C@H](O)[C@@H](NC(=O)c4ccccc4)c4ccccc4)C(C)=C1C3(C)C)[C@]1(OC(C)=O)CO[C@@H]1C[C@@H]2O", "note": "[Taxol, reference compound]", "values": [{"measurement": "Effect on mitotic spindle", "setting": "HeLa cells", "result": "strongly perturbed spindle organization"}, {"measurement": "Average mitotic duration", "setting": "HeLa H2B-GFP cells [1]; [3]", "result": 1946.9, "unit": "min"}, {"measurement": "Median mitotic duration", "setting": "HeLa H2B-GFP cells [1]; [3]", "result": 2070, "unit": "min"}, {"measurement": "Average mitotic duration", "setting": "HeLa H2B-GFP cells [1]; [13]", "result": 1557.6, "unit": "min"}, {"measurement": "Median mitotic duration", "setting": "HeLa H2B-GFP cells [1]; [13]", "result": 1602, "unit": "min"}, {"measurement": "Median mitotic duration", "setting": "HeLa H2B-GFP cells [1]; unsynchronized HeLa H2B-GFP, taxol 10 nM, proTAME 3 μM, control 60 min", "result": 414, "unit": "min"}]}]}
